The source of these data is US8030354B2, “Substituted biphenyl GPR40 modulators” (Amgen Inc., priority 2007, dated 2011).

In this experiment the target is GPR40 (Homo sapiens, UniProt O14842). Nature of the experiment: Cell-based aequorin assay (CHO cells stably expressing GPR40 and aequorin). Also noted: expressed in transfected cells; host or cells: CHO cells stably transfected with GPR40 and aequorin. To be noted: activation of human GPR40, CHO cells, 0.01% HSA. Put shortly: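 CHO cells stably co-expressing GPR40 and aequorin, loaded with coelenterazine (1 ug/mL, 2 h, room temperature) in H/HBSS with 20 mM Hepes and 0.01% fatty acid-free HSA. Serially diluted compounds added; luminescence recorded over 20 s. EC50 from dose-response of maximum relative light units.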
GPR40, sequence (O14842 whole entry): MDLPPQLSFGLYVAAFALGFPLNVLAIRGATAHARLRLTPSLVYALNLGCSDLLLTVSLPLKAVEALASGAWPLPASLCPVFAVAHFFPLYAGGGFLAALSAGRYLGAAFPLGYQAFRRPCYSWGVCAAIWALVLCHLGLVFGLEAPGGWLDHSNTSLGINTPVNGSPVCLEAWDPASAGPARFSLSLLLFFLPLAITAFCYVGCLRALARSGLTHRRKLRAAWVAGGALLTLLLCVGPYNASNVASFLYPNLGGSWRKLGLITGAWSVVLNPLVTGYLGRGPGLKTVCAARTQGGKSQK
What is called EC50 is the concentration at which the effect is half-maximal. The low end stands for higher potency in that assay, the high end for lower potency in that assay. As for `COc1ccc(F)c(-c2cc(F)c(COc3cccc([C@@H](CC(=O)O)C4CC4)c3)cc2[C@@H]2CCCC2(C)C)c1` (single isomer, unassigned) [Example 66.45], the concentration giving a half-maximal response (EC50) is 100 to 1000 nM.

The compound `COc1ccc(F)c(-c2ccc(COc3cccc([C@@H](CC(=O)O)C4CC4)c3)cc2C2=CCOCC2)c1` (single isomer, unassigned) [Example 66.46, (3S)-3-Cyclopropyl-3-(3-(((2-(3,6-dihydro-2H-pyran-4-yl)-2′-fluoro-5′-(methyloxy)-1,1′-biphenyl-4-yl)methyl)oxy)phenyl)propanoic acid or (3R)-3-cyclopropyl-3-(3-(((2-(3,6-dihydro-2H-pyran-4-yl)-2′-fluoro-5′-(methyloxy)-1,1′-biphenyl-4-yl)methyl)oxy)phenyl)propanoic acid] registered an EC50 of 1000 to 10000 nM.

As for `CC1(C)CCC[C@H]1c1cc(COc2cccc([C@@H](CC(=O)O)C3CC3)c2)ccc1-c1cccc(OC(F)F)c1` (single isomer, unassigned) [Example 66.47], the EC50 was 100 to 1000 nM.

As to `CC1(C)CCC[C@@H]1c1cc(COc2cccc([C@@H](CC(=O)O)C3CC3)c2)ccc1-c1cccc(OC2CC2)c1` (single isomer, unassigned) [Example 66.48], the 50% effective concentration (EC50) was 100 to 1000 nM.

The compound `CC1(C)CCC[C@H]1c1cc(COc2cccc([C@@H](CC(=O)O)C3CC3)c2)ccc1-c1cc(C(F)F)ccc1F` (single isomer, unassigned) [Example 66.52] registered an EC50 of 1000 to 10000 nM.

The compound `CC1(C)CCC=C1c1cc(COc2cccc([C@@H](CC(=O)O)C3CC3)c2)ccc1-c1cc(C(F)(F)F)ccc1F` (single isomer, unassigned) [Example 66.53, (3S)-3-Cyclopropyl-3-(3-(((2-(5,5-dimethyl-1-cyclopenten-1-yl)-2′-fluoro-5′-(trifluoromethyl)-1,1′-biphenyl-4-yl)methyl)oxy)phenyl)propanoic acid or (3R)-3-cyclopropyl-3-(3-(((2-(5,5-dimethyl-1-cyclopenten-1-yl)-2′-fluoro-5′-(trifluoromethyl)-1,1′-biphenyl-4-yl)methyl)oxy)phenyl)propanoic acid] gave an EC50 of 1000 to 10000 nM.

For the compound `COc1ccc(F)c(-c2ccc(COc3cccc([C@@H](CC(=O)O)C4CC4)c3)cc2[C@H]2OCCCC2(C)C)c1` (single isomer, unassigned) [Example 66.55], the EC50 lay in the range of 1000 to 10000 nM.

`C=CC(C)(C)[C@@H](O)c1cc(COc2cccc([C@@H](CC(=O)O)C3CC3)c2)ccc1-c1cc(OC)ccc1F` (single isomer, unassigned) [Example 66.60] showed an EC50 of 1000 to 10000 nM.

On to `C=CC(C)(C)C(O)c1cc(COc2cccc(C(CC(=O)O)C3CC3)c2)ccc1-c1cc(OC)ccc1F` (single isomer, unassigned) [Example 66.61], for which the EC50 lay in the range of 100 to 1000 nM.

In the case of `COc1ccc(F)c(-c2ccc(COc3cccc([C@@H](CC(=O)O)C4CC4)c3)cc2CN2CCCCC2)c1` (single isomer, unassigned) [Example 66.64, (3S)-3-Cyclopropyl-3-(3-(((2′-fluoro-5′-(methyloxy)-2-(1-piperidinylmethyl)-1,1′-biphenyl-4-yl)methyl)oxy)phenyl)propanoic acid or (3R)-3-cyclopropyl-3-(3-(((2′-fluoro-5′-(methyloxy)-2-(1-piperidinylmethyl)-1,1′-biphenyl-4-yl)methyl)oxy)phenyl)propanoic acid], the EC50 was in the range of 1000 to 10000 nM.

Compound `COc1ccc(F)c(-c2ccc(COc3cccc([C@@H](CC(=O)O)C4CC4)c3)cc2CN2CCCC2)c1` (single isomer, unassigned) [Example 66.65, (3S)-3-Cyclopropyl-3-(3-(((2′-fluoro-5′-(methyloxy)-2-(1-pyrrolidinylmethyl)-1,1′-biphenyl-4-yl)methyl)oxy)phenyl)propanoic acid or (3R)-3-cyclopropyl-3-(3-(((2′-fluoro-5′-(methyloxy)-2-(1-pyrrolidinylmethyl)-1,1′-biphenyl-4-yl)methyl)oxy)phenyl)propanoic acid] gave an EC50 of 1000 to 10000 nM.

`CC1(c2cccc(-c3ccc(COc4cccc(C(CC(=O)O)C5CC5)c4)cc3C3CCCC3(C)C)c2)OCCO1` (single isomer, unassigned) [Example 66.72, (S)-3-(3-((S)-3-((S)-2,2-Dimethylcyclopentyl)-4-(3-(2-methyl-1,3-dioxolan-2-yl)phenyl)benzyloxy)phenyl)-3-cyclopropylpropanoic acid or stereoisomer thereof]: the 50% effective concentration (EC50) lay within 1000 to 10000 nM.

In the case of `COc1ccc(F)c(-c2ccc(COc3cccc(C(CC(=O)O)C4CC4)c3)cc2CN2CCCCCC2)c1` (single isomer, unassigned) [Example 66.73, (3S)-3-(3-(((2-(1-Azepanylmethyl)-2′-fluoro-5′-(methyloxy)-1,1′-biphenyl-4-yl)methyl)oxy)phenyl)-3-cyclopropylpropanoic acid or (3R)-3-(3-(((2-(1-azepanylmethyl)-2′-fluoro-5′-(methyloxy)-1,1′-biphenyl-4-yl)methyl)oxy)phenyl)-3-cyclopropylpropanoic acid], the EC50 lay in the range of 1000 to 10000 nM.

Take `CC(=O)c1cccc(-c2ccc(COc3cccc([C@@H](CC(=O)O)C4CC4)c3)cc2[C@H]2CCCC2(C)C)c1` (single isomer, unassigned) [Example 66.74, (S)-3-(3-((S)-3-((S)-2,2-Dimethylcyclopentyl)-4-(3-acetylphenyl)benzyloxy)phenyl)-3-cyclopropylpropanoic acid or stereoisomer thereof]: the EC50 was in the range of 1000 to 10000 nM.

Take `COc1ccc(F)c(-c2ccc(COc3cccc(C(CC(=O)O)C4CC4)c3)cc2CN2CCCC[C@@H]2C)c1` (single isomer, unassigned) [Example 66.75, (3S)-3-Cyclopropyl-3-(3-(((2′-fluoro-5′-(methyloxy)-2-(((2S)-2-methyl-1-piperidinyl)methyl)-1,1′-biphenyl-4-yl)methyl)oxy)phenyl)propanoic acid or (3R)-3-cyclopropyl-3-(3-(((2′-fluoro-5′-(methyloxy)-2-(((2S)-2-methyl-1-piperidinyl)methyl)-1,1′-biphenyl-4-yl)methyl)oxy)phenyl)propanoic acid]: the EC50 was in the range of 1000 to 10000 nM.

`CC(C)(O)c1cccc(-c2ccc(COc3cccc([C@@H](CC(=O)O)C4CC4)c3)cc2[C@H]2CCCC2(C)C)c1` (single isomer, unassigned) [Example 66.76, (S)-3-(3-((S)-3-((S)-2,2-dimethylcyclopentyl)-4-(3-(2-hydroxypropan-2-yl)phenyl)benzyloxy)phenyl)-3-cyclopropylpropanoic acid or stereoisomer thereof]: the EC50 lay within 1000 to 10000 nM.

As to `CCCCCOc1cc(COc2cccc(C(CCC)CC(=O)O)c2)ccc1-c1cc(OC)ccc1F` (single isomer, unassigned) [Example 67.1, (3R)-3-(3-(((2′-Fluoro-5′-(methyloxy)-2-(pentyloxy)-1,1′-biphenyl-4-yl)methyl)oxy)phenyl)hexanoic acid or (3S)-3-(3-(((2∝-fluoro-5′-(methyloxy)-2-(pentyloxy)-1,1′-biphenyl-4-yl)methyl)oxy)phenyl)hexanoic acid], the EC50 fell in the range of 100 to 1000 nM.
